Entries after “also recorded” stand apart in the source; their conditions may differ.
What was measured:
[1] = system: porcine coronary artery smooth muscle cells; assay: Basal DNA synthesis without mitogenic stimulation, quiescent porcine coronary artery SMCs; format: cell-based; conditions: for basal DNA synthesis in the absence of mitogenic stimulation: quiescent porcine coronary artery SMCs
Description: (§1) Quiescent SMCs (panel A) and H4IIE cells (panel B) were treated with PGJ2 and incorporation of thymidine was measured as previously described. Quiescent SMCs were also treated with WY-14643 (panel C) and incorporation of thymidine was measured. The data are presented as means±s.e. (n=3).

H4IIE hepatoma cells [2] = assay: Basal DNA synthesis without mitogenic stimulation, quiescent H4IIE hepatoma cells; format: cell-based
Description: as §1

[3] = system: porcine coronary artery smooth muscle cells; assay: [3H]thymidine incorporation (DNA synthesis) after PDGF stimulation, porcine coronary artery SMCs; format: cell-based; conditions: PDGF 0.1 μg, 72 h
Description: (§2) SMCs were prepared by explant culture as previously described, grown in 24-well culture dishes to 70% confluence and then placed into serum-free DMEM supplemented with insulin, ascorbate, pyruvate and selenium for 5 days. These conditions result in the cessation of cell growth, and markers of the contractile state are expressed. The cells were subsequently treated with PDGF (0.1 μg) in the presence or absence of WY-14643, and 2 μCi/mL [^3H]thymidine were added to the culture medium 24 hours later. Seventy-two hours following PDGF treatment, incorporation of thymidine into trichloroacetate-precipitable material was measured. The data, which is presented as means±s.e. (n=3), are shown for porcine SMCs (panel A), human saphenous vein SMCs (panel B) and human internal mammary artery SMCs (panel C). All values have been normalized relative to the incorporation in unstimulated quiescent cells (control=100).
Quiescent SMCs were treated with PDGF (01. μg/ml) in the presence and absence of PGJ2, and incorporation of thymidine was measured as previously described. The data are presented as means±s.e. (n=3).
Quiescent SMCs were treated with PDGF (0.1 μg) in the presence or absence of clofibrate, and incorporation of thymidine was measured as previously described. The data are presented as means±s.e. (n=3).

H4IIE hepatoma cells [4] = assay: [3H]thymidine incorporation (DNA synthesis) by H4IIE hepatoma cells after IGF-1; format: cell-based; conditions: IGF-1 0.1 μM, 72 h
Description: H4IIE hepatoma cells were cultured and quiescent cells were prepared in 24-well culture dishes by placing the cells into serum-free α-MEM for 3 days. The cells were treated with IGF-1 (0.1 μM) in the presence or absence of WY-14643, and 2 μCi/mL [^3H]thymidine were added concurrent with the treatment. Seventy-two hours following treatment, the cells were lysed and thymidine incorporation was measured as described above. The data are presented as means+/−s.e. (n=3).

[5] = system: human saphenous vein SMCs; assay: [3H]thymidine incorporation (DNA synthesis) after PDGF stimulation, human saphenous vein SMCs; format: cell-based; conditions: PDGF 0.1 μg, 72 h
Description: as §2, with “C).” for “C). All values have been normalized relative to the incorporation in unstimulated quiescent cells (control=100).”

[6] = system: Porcine coronary arteries; assay: Organ culture model of restenosis (balloon angioplasty ex vivo, neointimal index); format: cell-based; conditions: 250 μM continuous, 14 days in culture after balloon angioplasty ex vivo
Description: Porcine coronary arteries were subjected to balloon angioplasty ex vivo and placed into culture for 14 days. Treatment with WY-14643 (250 μM) was continuous over the entire time period. Subsequently, the vessel segments were sectioned and morphometry was employed to quantify the extent of restenosis. The neointimal index is defined as: neointimal area/medial area. The data are presented as means±s.e. (n=8). Control=no balloon angioplasty.

A10 smooth muscle cells = assay: [3H]thymidine incorporation (DNA synthesis) by A10 smooth muscle cells after PDGF or IGF-1; format: cell-based, rat; conditions: A10 SMCs, 72 h
Description: […] were cultured and quiescent cells were prepared in 24-well culture dishes as described in the legend for FIG. 2. The cells were treated with PDGF (0.1 μg) or IGF-1 (0.1 μM) in the presence or absence of WY-14643, and 2 μCi/mL [^3H]thymidine were added to the medium concurrent with the mitogens. Seventy-two hours following treatment, the cells were lysed and thymidine incorporation was measured as described above. […] (n=3), for A10 cells treated with PDGF (panel A) and IGF-1 (panel B).

[7] = system: human internal mammary artery SMCs; assay: [3H]thymidine incorporation (DNA synthesis) after PDGF stimulation, human internal mammary artery SMCs; format: cell-based; conditions: PDGF 0.1 μg, 72 h
Description: as §2, with “C).” for “C). All values have been normalized relative to the incorporation in unstimulated quiescent cells (control=100).”

[8] = system: human proximal tubule cells; assay: Growth (cell number, Coulter counter) of human proximal tubule cells; format: cell-based
Description: Human proximal tubule cells were purchased from Clonetics and propagated in 24-well culture dishes with Renal Epithelial Cell Basal medium (REBM) containing 0.5% fetal bovine serum (FBS). Treatments were added once the cells reached 40% confluence. Incubation was continued for 4 days, at which time the cells were detached by trypsinization and cell number measured with a Coulter counter. All comparisons are relative to a cell population treated with 5 μg/ml aphidicolin, a non-toxic inhibitor of cell proliferation. The data are presented as means+/−s.e. (n=6).

smooth muscle cells = assay: DNA synthesis by smooth muscle cells with PPAR-gamma agonists (FIG. 13); format: cell-based

| SMILES | basal DNA synthesis in the absence of mitogenic stimulation [1] | basal DNA synthesis in the absence of mitogenic stimulation (H4IIE hepatoma cells [2]) | DNA synthesis (thymidine incorporation) in response to PDGF stimulation [3] | DNA synthesis in response to stimulation by IGF-1 (H4IIE hepatoma cells [4]) | DNA synthesis (thymidine incorporation) in response to PDGF stimulation [5] | apparent toxicity / cytotoxicity (FIG. 9) ([1]; stated with reference to FIG. 9) | neointimal proliferation / restenosis (neointimal index) [6] | DNA synthesis in response to IGF-1 stimulation (A10 smooth muscle cells; IGF-1 0.1 μM) | DNA synthesis in response to PDGF stimulation (A10 smooth muscle cells; PDGF 0.1 μg) | DNA synthesis (thymidine incorporation) in response to PDGF stimulation [7] | growth of human proximal tubule cells (cell number) ([8]; 4 days incubation, relative to aphidicolin 5 μg/ml) | apparent toxicity in primary human renal proximal tubule cells ([8]; primary cultures) | inhibition of DNA synthesis by smooth muscle cells (smooth muscle cells) |
| --- | --- | --- | --- | --- | --- | --- | --- | --- | --- | --- | --- | --- | --- |
| CCCCC[C@H](O)/C=C/[C@H]1C(=O)C=C[C@@H]1C/C=C\CCCC(=O)O [PGJ2] | inhibits basal DNA synthesis | inhibits basal DNA synthesis | inhibits DNA synthesis; also recorded: is inhibitory | – | – | – | – | – | – | – | – | – | – |
| Cc1cccc(Nc2cc(Cl)nc(SCC(=O)O)n2)c1C [WY-14643] | has no effect | – | inhibited DNA synthesis; also recorded: can inhibit smooth muscle cell proliferation | inhibits DNA synthesis; also recorded: prevented cell growth | inhibited DNA synthesis | without apparent toxicity | inhibits neointimal proliferation; also recorded: prevent restenosis | does not inhibit DNA synthesis; also recorded: could not inhibit the growth | does not inhibit DNA synthesis; also recorded: could not inhibit the growth | inhibited DNA synthesis | prevented cell growth; also recorded: effectively inhibits the growth | without apparent toxicity | – |
| CCc1ccc(CCOc2ccc(CC3SC(=O)NC3=O)cc2)nc1 (stereo not drawn) [piaglitazone] | – | – | – | – | – | – | – | – | – | – | – | – | are not |

From US20060052457A1, “Use of ppar alpha agonists for the treatment of vascular and renal diseases” (priority 2002, published 2006)
